Where two headings read alike, the source gives them in different places.
B1: PaCAγ1, γ-class carbonic anhydrase from Pseudomonas aeruginosa PAO1 (PA5540) (enzyme, UniProt Q9HT34 1-186, looked up)
chain: MIRKNPSGDLPVIDESAYVDKTAIICGKVIIQANVFVGPYAVIRADEVDADGGMQPIVIGANSNIQDGVVIHSKSGAAVTIGEHSSIAHRSIVHGPCEVGDRVFIGFNSVLFNCRVGDGCVVRHNAVVDGCDLPAGFYVPSTERIGPRTDLASMPRVSVSASEFSEDVARTNVDLVRGYKSLQNEF
notes: PaCAγ1, γ-class carbonic anhydrase encoded by PA5540 of P. aeruginosa PAO1; synthetic gene in pET21d; The initiator methionine is absent in the purified protein by LC-MS; source: E. coli BL21 (DE3), purified (His Trap HP, SEC Superdex 75); not shown: His6, C-terminal, kept

Legend:
Neisseria gonorrhoeae = system: Neisseria gonorrhoeae; parameters: method as in PMID 33765392, PMID 34894972; details: treatment with CA inhibitor; no apparent development of resistance; ref [35],[36]; cited from earlier work
psCA1 = details: read-out: KI psCA1; 20 °C, 10 mM Tris buffer, 20 mM NaClO4 pH 8.3; ref [52]; cited from earlier work
PaCAγ1 [1] = target: PaCAγ1 (Pseudomonas aeruginosa, UniProt Q9HT34); assay: biochemical; details: Stopped-Flow assay, mean from 3 different assays
hCA I = hCA I (Homo sapiens, UniProt P00915); assay: Stopped-flow CO2 hydration inhibition assay, hCA I; assay type: biochemical
PaCAγ1 [2] = assay: biochemical; details: Selectivity Index, ratio of KI
hCA II = hCA II (Homo sapiens, UniProt P00918); assay: Stopped-flow CO2 hydration inhibition assay, hCA II; assay type: biochemical; details: mean from 3 different assays, errors ±5–10 %
Helicobacter pylori = details: without triggering resistance; ref [37]; cited from earlier work
[3] = target: the molecule itself; assay: SEC-MALS; SEC-MALS-QELS; 700 μg of purified protein loaded on the SEC s75 column, 20 mM TRIS, 150 mM NaCl, pH 8.5, flow rate 0.5 mL/min
[4] = Stopped-Flow assay, mean from 3 different assays, errors ±5–10 %, read-out: KI hCA I

Chain of hCA I (P00915 whole entry): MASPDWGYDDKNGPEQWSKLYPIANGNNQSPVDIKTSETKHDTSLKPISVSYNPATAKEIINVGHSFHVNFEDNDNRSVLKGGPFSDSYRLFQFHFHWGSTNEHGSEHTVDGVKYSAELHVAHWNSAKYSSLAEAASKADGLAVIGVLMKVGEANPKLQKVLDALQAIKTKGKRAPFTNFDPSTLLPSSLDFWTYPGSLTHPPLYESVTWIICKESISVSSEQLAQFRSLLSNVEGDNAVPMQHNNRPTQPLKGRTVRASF

Molecule	Ki (PaCAγ1 [1])	other results
CC(=O)Nc1nnc(S(N)(=O)=O)s1 [AAZ, acetazolamide]	–	effect on N. gonorrhoeae (Neisseria gonorrhoeae): long-lasting bacteriostatic effects
Nc1cccc(S(N)(=O)=O)c1 [ABS, 3-amino-benzene suldonamide]	–	Ki (psCA1): 19 nM
CCN[C@H]1CN(CCCOC)S(=O)(=O)c2sc(S(N)(=O)=O)cc21 [BRZ]	307 ± 13.1 nM	–
NS(=O)(=O)c1nnc(NS(=O)(=O)c2ccccc2)s1 [BZA]	290 ± 14.4 nM	–
Nc1cccc(S(N)(=O)=O)c1 [Compound 1]	189 ± 7.11 nM	–
Nc1ccc(S(N)(=O)=O)cc1 [Compound 2]	155 ± 5.23 nM	–
NCc1ccc(S(N)(=O)=O)cc1 [Compound 3]	132 ± 8.86 nM	–
NS(=O)(=O)c1cccc(S(N)(=O)=O)c1 [Compound 5]	561 ± 32.4 nM	Ki (hCA I; [4]): 25000 nM
Cc1ccc(S(N)(=O)=O)cc1 [Compound 6]	266 ± 14.2 nM	Ki (hCA I): 21000 nM
Nc1ccc(S(N)(=O)=O)cc1F [Compound 7]	325 ± 13.8 nM	–
Nc1ccc(S(N)(=O)=O)cc1Cl [Compound 8]	697 ± 44.7 nM	–
Nc1ccc(S(N)(=O)=O)cc1Br [Compound 9]	3490 nM	–
NS(=O)(=O)c1cc(Cl)cc(Cl)c1O [Compound 10]	9670 nM	–
Nc1cc(C(F)(F)F)c(S(N)(=O)=O)cc1S(N)(=O)=O [Compound 11]	3670 nM	–
Nc1cc(Cl)c(S(N)(=O)=O)cc1S(N)(=O)=O [Compound 12]	6090 nM	–
Nc1nnc(S(N)(=O)=O)s1 [Compound 13]	72.6 ± 3.43 nM	–
Cn1nc(S(N)(=O)=O)sc1=N [Compound 14]	97.1 ± 5.32 nM	–
NS(=O)(=O)c1ccc(O)cc1 [Compound 15]	209 ± 9.19 nM	–
NS(=O)(=O)c1ccc(CO)cc1 [Compound 16]	533 ± 25.8 nM	–
NS(=O)(=O)c1ccc(CCO)cc1 [Compound 17]	419 ± 17.7 nM	–

Molecule	Ki (PaCAγ1 [1])	other results
NS(=O)(=O)c1ccc(C(=O)O)cc1 [Compound 18]	793 ± 46.2 nM	–
Nc1nccc(Nc2ccc(S(N)(=O)=O)cc2)n1 [Compound 19]	1320 nM	–
Nc1ccc(S(=O)(=O)Nc2nnc(S(N)(=O)=O)s2)cc1 [Compound 20]	244 ± 16.2 nM	–
NS(=O)(=O)c1ccc(CCNS(=O)(=O)c2ccc([N+](=O)[O-])cc2CO)cc1 [Compound 21]	564 ± 32.9 nM	–
Nc1ccc(S(=O)(=O)Nc2ccc(S(N)(=O)=O)cc2)cc1 [Compound 22]	386 ± 19.3 nM	–
Nc1ccc(S(=O)(=O)NCc2ccc(S(N)(=O)=O)cc2)cc1 [Compound 23]	828 ± 51.7 nM	–
Nc1ccc(S(=O)(=O)NCCc2ccc(S(N)(=O)=O)cc2)cc1 [Compound 24]	584 ± 22.2 nM	–
NS(=O)(=O)c1cc(Cl)c(Cl)c(S(N)(=O)=O)c1 [DCP]	5680 nM	–
NS(=O)(=O)NCCNc1nonc1/C(=N\c1ccc(F)c(Br)c1)NO [EPC]	5320 nM	SI hCA I/PaCAγ1 (PaCAγ1 [2]): 1.6; SI hCA II/PaCAγ1 (PaCAγ1 [2]): 0.2; Ki (hCA I; [4]): 8260 nM; Ki (hCA II): 917 nM
CCOc1ccc2nc(S(N)(=O)=O)sc2c1 [EZA, ethoxzolamide]	–	effect on N. gonorrhoeae (Neisseria gonorrhoeae): long-lasting bacteriostatic effects; effect on H. pylori growth (Helicobacter pylori): inhibited bacterial growth
NC(N)=Nc1nc(CSCC/C(N)=N/S(N)(=O)=O)cs1 [FAM]	2690 nM	SI hCA I/PaCAγ1 (PaCAγ1 [2]): 0.3; SI hCA II/PaCAγ1 (PaCAγ1 [2]): 0.02; Ki (hCA I; [4]): 922 nM; Ki (hCA II): 58 nM
NS(=O)(=O)c1cc2c(cc1Cl)NCNS2(=O)=O [HTC]	6600 nM	SI hCA I/PaCAγ1 (PaCAγ1 [2]): 0.05; SI hCA II/PaCAγ1 (PaCAγ1 [2]): 0.04
NS(=O)(=O)c1ccc(S(=O)(=O)Nc2cccc3c(Cl)c[nH]c23)cc1 [IND]	453 ± 20.1 nM	–
CC(=O)/N=c1/sc(S(N)(=O)=O)nn1C [MZA]	68.4 ± 2.93 nM	–
O=C1NS(=O)(=O)c2ccccc21 [SAC]	13800 nM	–
NS(=O)(=O)c1ccc(N2CCCCS2(=O)=O)cc1 [SLT]	356 ± 23.8 nM	–
CC1(C)O[C@@H]2[C@@H](CO[C@@]3(COS(N)(=O)=O)OC(C)(C)O[C@@H]23)O1 [TPM]	> 100000 nM	–
Cc1onc(-c2ccccc2)c1-c1ccc(S(N)(=O)=O)cc1 [VLX]	> 100000 nM	–
NS(=O)(=O)Cc1noc2ccccc12 [ZNS]	4170 nM	–
B1	–	stoichiometry N [3]: 3

— PMC13261364 (International journal of biological macromolecules, 2025)
